{"source": "patent US20030100109A1", "about": "“Methods and compositions for in vitro germination and propagation of polygonatum cirrhifolium royle” (priority 2001, published 2003)", "tested_on": "Polygonatum cirrhifolium Royle seeds with emerged hypocotyl", "test": "Synchronization of germination: release of epicotyl, coleoptile and radicle from seeds with emerged hypocotyl", "assay_type": "in vivo", "details": "modified MS culture medium, 20° C., 16 hr photoperiod", "description": "Germination was evaluated every three days by examining seeds for hypocotyl emergence. […] Seeds with emerged hypocotyl were transferred under aseptic conditions to the above defined basal culture medium containing gibberellic acid at 5, 25, 50 and 100 mg/L. Transferred plants were incubated in an environment having 8-16-hr days under about 2000 lux of light and about 8-16-hr nights in total darkness at a constant temperature of 20° C. ([…]) and at 50-60% RH. Illumination was provided by 40-watt cool, white fluorescent tubes. Germination synchronization as indicated by differentiated epicotyl with emergent coleoptile and radicle was recorded on daily basis. The consequent step of synchronization of germination is presented in table 3 in which epicotyl with emergent coleoptile and radicle is manifest under 8-16 hr photoperiod (light intensity 2000-3500 lux) at an incubation temperature of 20° C. (RH 50-60%). In this experiment seeds with emerged hypocotyl were transferred to the culture to modified MS basal culture medium containing of 2.2 g/L NH4NO3, 2.0 g/L KNO3, 0.44 g/l CaCl2.2H2P, 0.37 g/L MgSO4.7H20, 0.17 g/L KH2PO4, 37.25 mg/L Na2 EDTA, 27.8 mg/L FeSO4.7H20, 0.83 mg/L KI, 6.2 mg/L H3BO3, 22.3 mg/L MnSO4.4H20, 8.6 mg/L ZnSO4.7H20, 0.25 mg/L Na2MoO4.2H20, 0.025 mg/L CuSO4.5H2O, 0.025 mg/L CoCl2.6H20, 250 mg/L myo-inositol, 0.5 mg/L nicotinic acid, 0.5 mg/L pyridoxine HCl, 3 mg/L thiamine HCl, 2 mg/L glycine, 30 g/L sucrose and 7.5 g/L agar and supplemented with 4 concentrations of GA3 viz. […], 25, 50 and 100 mg/L. Cultures were incubated at 20° C. under 16 hr photoperiod in a growth chamber. there were four treatments in total and each treatment consisted of 15 replicates with 4 seeds with emerged hypocotyl in each replicate. The effect of various treatments on the release of epicotyl, coleoptile radicle and days to release/synchronization is described in table 3.100 mg/L of GA3 results in 100% synchronization after 11 days of culture.", "note": "“And” between values parts separate entries of the source, which are not always exact repeats. Identical values can stand only once.", "data": [{"molecule": "C=C1C[C@]23C[C@@]1(O)CC[C@H]2[C@@]12C=C[C@H](O)[C@@](C)(C(=O)O1)[C@H]2[C@@H]3C(=O)O", "note": "[GA3, gibberellic acid]", "values": [{"measurement": "Days to release epicotyl, coleoptile & radicle", "setting": "GA3 10 mg/L", "result": 21, "unit": "days"}, {"measurement": "Percent seeds with epicotyl, coleoptile & radicle", "setting": "GA3 10 mg/L", "result": "23.71 ± 2.00", "unit": "%"}, {"measurement": "Days to release epicotyl, coleoptile & radicle", "setting": "GA3 25 mg/L", "result": 18, "unit": "days"}, {"measurement": "Percent seeds with epicotyl, coleoptile & radicle", "setting": "GA3 25 mg/L", "result": "78.23 ± 3.11", "unit": "%"}, {"measurement": "Days to release epicotyl, coleoptile & radicle", "setting": "GA3 50 mg/L", "result": 14, "unit": "days"}, {"measurement": "Percent seeds with epicotyl, coleoptile & radicle", "setting": "GA3 50 mg/L", "result": "100.00 ± 0.00", "unit": "%"}, {"measurement": "Days to release epicotyl, coleoptile & radicle", "setting": "GA3 100 mg/L", "result": 11, "unit": "days"}, {"measurement": "Percent seeds with epicotyl, coleoptile & radicle", "setting": "GA3 100 mg/L", "result": "100% and 100.00 ± 0.00%"}]}]}
